Measured values from patent US10913710B2, “Benzene disulfonamide for the treatment of cancer” (priority 2017, dated 2021).

Tested on: human peripheral blood mononuclear cells (hPMPBC)
Assay: Cytotoxicity assay with human peripheral blood mononuclear cells
Type: cell-based
Conditions: not given
Method: Cells were incubated with test substances at titrated concentrations ranging between 30 μM and 1.7 nM for 72 h. After the incubation period, the cells were fixed with 10% (wt/vol) trichloroacetic acid and stained for 30 min with sulforhodamine B (SRB) staining solution prior to removing unbound dye by washing repeatedly with 1% (vol/vol) acetic acid. The protein-bound dye is dissolved in 10 mM Tris base solution for OD (optical density) determination at 510 nm using a microplate reader.

SMILES | concentration up to which hPMBCs proliferation is not impaired
CNc1nccc(CN(CC2CCNCC2)S(=O)(=O)c2ccc(S(=O)(=O)N(Cc3ccc(Cl)cc3)C3CCCC3)cc2)n1 [Compound 16, N1-(4-Chlorobenzyl)-N1-cyclopentyl-N4-((2-(methylamino)pyrimidin-4-yl)methyl)-N4-(piperidin-4-ylmethyl)benzene-1,4-disulfonamide] | ≥ 30 µM

Tested on: not listed separately
Assay: in vitro
Conditions: human, Caco-2, pH 6.5
Method: (§1) Caco-2 Permeability Assay:
(§2) The compound concentration was measured in the receiver as well as the donor well.

SMILES | Papp A→B at 2 h, 10 µM | Papp B→A at 2 h, 10 µM | efflux ratio at 2 h, 10 μM
CNc1nccc(CN(CC2CCNCC2)S(=O)(=O)c2ccc(S(=O)(=O)N(Cc3ccc(Cl)cc3)C3CCCC3)cc2)n1 [Compound 16, N1-(4-Chlorobenzyl)-N1-cyclopentyl-N4-((2-(methylamino)pyrimidin-4-yl)methyl)-N4-(piperidin-4-ylmethyl)benzene-1,4-disulfonamide] | 1.6 ×10⁻⁶ cm/s | 13.7 ×10⁻⁶ cm/s | –
CNc1cc(CN(CC2CCNCC2)S(=O)(=O)c2ccc(S(=O)(=O)N(Cc3ccc(Cl)cc3)C3CCCC3)cc2)ccc1C(=O)O [Compound 21, 4-(((4-(N-(4-chlorobenzyl)-N-cyclopentylsulfamoyl)-N-(piperidin-4-ylmethyl)phenyl)sulfonamido)methyl)-2-(methylamino)benzoic Acid] | 0.4 ×10⁻⁶ cm/s | 0.5 ×10⁻⁶ cm/s | 1.1
O=S(=O)(c1ccc(S(=O)(=O)N(Cc2ccc(Cl)cc2)C2CCCC2)cc1)N(Cc1ccccc1)CC1CCNCC1 [Compound 44, N1-Benzyl-N4-(4-chlorobenzyl)-N4-cyclopentyl-N1-(piperidin-4-ylmethyl)benzene-1,4-disulfonamide] | 0.6 ×10⁻⁶ cm/s | 0.6 ×10⁻⁶ cm/s | 0.9

Tested on: Caco-2 cells
Assay: in vitro
Conditions: 10 μM, 2 hours, 37° C.
Method: as §1, §2

SMILES | Caco-2 pH 6.5/7.4 Papp A→B Arith. Mean | Caco-2 pH 6.5/7.4 Papp B→A Arith. Mean
c1ccc(Cn2c(-c3ccc(OC[C@H](C4CCNCC4)n4c(-c5ccccc5)nc5ccccc54)cc3)nc3ccccc32)cc1 [Deltarasin, reference compound] | 1.0 10^−6 cm/s | 5.1 10^−6 cm/s
Cc1ccc(-n2nc3c(=O)n(CCCC(=O)NCC(C)c4ccccc4)nc(C)c3c2C)cc1 (centres unmarked) [Deltazinone 1, reference compound] | 41.1 10^−6 cm/s | 25.1 10^−6 cm/s

Biological target: PDEδ (Homo sapiens (Human), UniProt O43924)
Assay: Fluorescence polarization competition binding assay: displacement titration of labeled Atorvastatin probe for KD
Conditions: fluorescence polarization assay; activity classes; read-out: KD
Method: Example D.2: Displacement Titrations of Labeled Atorvastatin-Probe for the Determination of KD Values
Displacement Titrations of Labeled Atorvastatin-Probe for the Determination of KD Values:
The purification was followed by size exclusion gel filtration on a Superdex 75 S26/60 column using buffer A (25 mM Tris-HCl, pH 7.5, 150 mM NaCl and 3 mM DTE).

SMILES | Kd
CNc1cc(CN(CC2CCNCC2)S(=O)(=O)c2ccc(S(=O)(=O)N(Cc3ccc(Cl)cc3)C3CCCC3)cc2)ccc1C(=O)O [Compound 21, 4-(((4-(N-(4-chlorobenzyl)-N-cyclopentylsulfamoyl)-N-(piperidin-4-ylmethyl)phenyl)sulfonamido)methyl)-2-(methylamino)benzoic Acid] | 1 to 30 nM
O=S(=O)(c1ccc(S(=O)(=O)N(Cc2ccc(Cl)cc2)C2CCCC2)cc1)N(Cc1ccccc1)CC1CCNCC1 [Compound 44, N1-Benzyl-N4-(4-chlorobenzyl)-N4-cyclopentyl-N1-(piperidin-4-ylmethyl)benzene-1,4-disulfonamide] | 1 to 30 nM
CN(Cc1ccccc1)S(=O)(=O)c1ccc(S(=O)(=O)N(Cc2ccc(Cl)cc2)Cc2ccco2)cc1 [Compound 74, N1-benzyl-N4-(4-chlorobenzyl)-N4-(furan-2-ylmethyl)-N1-methylbenzene-1,4-disulfonamide] | > 1000 nM
COc1ccc(CN(Cc2ccc3c(c2)OCO3)S(=O)(=O)c2ccc(S(=O)(=O)NC3CCCCC3)cc2)cc1OC [Compound 75, N1-(benzo[d][1,3]dioxol-5-ylmethyl)-N4-cyclohexyl-N1-(3,4-dimethoxybenzyl)benzene-1,4-disulfonamide] | > 1000 nM
CCOc1ccccc1CN(Cc1ccco1)S(=O)(=O)c1ccc(S(=O)(=O)NC2CCCCC2)cc1 [Compound 76, N1-cyclohexyl-N4-(2-ethoxybenzyl)-N4-(furan-2-ylmethyl)benzene-1,4-disulfonamide] | 100 to 1000 nM
O=S(=O)(NCC1CCCO1)c1ccc(S(=O)(=O)N(Cc2ccccc2)Cc2ccccc2F)cc1 (centres unmarked) [Compound 77, N1-benzyl-N1-(2-fluorobenzyl)-N4-((tetrahydrofuran-2-yl)methyl)benzene-1,4-disulfonamide] | 100 to 1000 nM
O=S(=O)(c1ccc(S(=O)(=O)N(Cc2ccc(F)cc2)Cc2ccc(F)cc2)cc1)N1CCCCC1 [Compound 78, N,N-bis(4-fluorobenzyl)-4-(piperidin-1-ylsulfonyl)benzenesulfonamide] | 100 to 1000 nM
CCOc1ccc(CN(CC2CCCO2)S(=O)(=O)c2ccc(S(=O)(=O)N3CCCCC3)cc2)cc1 (centres unmarked) [Compound 79, N-(4-ethoxybenzyl)-4-(piperidin-1-ylsulfonyl)-N-((tetrahydrofuran-2-yl)methyl)benzenesulfonamide] | > 1000 nM
O=S(=O)(c1ccc(S(=O)(=O)N(Cc2ccc(F)cc2)CC2CCCO2)cc1)N1CCCCC1 (centres unmarked) [Compound 80, N-(4-fluorobenzyl)-4-(piperidin-1-ylsulfonyl)-N-((tetrahydrofuran-2-yl)methyl)benzenesulfonamide] | 30 to 100 nM
COc1ccc(CN(Cc2ccccc2Cl)S(=O)(=O)c2ccc(S(=O)(=O)N3CCCCC3)cc2)cc1 [Compound 81, N-(2-chlorobenzyl)-N-(4-methoxybenzyl)-4-(piperidin-1-ylsulfonyl)benzenesulfonamide] | 30 to 100 nM
O=S(=O)(c1ccc(S(=O)(=O)N(Cc2ccc(Cl)cc2)CC2CCCO2)cc1)N1CCCCC1 (centres unmarked) [Compound 82, N-(4-chlorobenzyl)-4-(piperidin-1-ylsulfonyl)-N-((tetrahydrofuran-2-yl)methyl)benzenesulfonamide] | 100 to 1000 nM
CN(C1CCCCC1)S(=O)(=O)c1ccc(S(=O)(=O)N(Cc2ccc(F)cc2)C2CC2)cc1 [Compound 83, N1-cyclohexyl-N4-cyclopropyl-N4-(4-fluorobenzyl)-N1-methylbenzene-1,4-disulfonamide] | 30 to 100 nM
COc1cccc(CN(Cc2ccco2)S(=O)(=O)c2ccc(S(=O)(=O)NCC3CCCO3)cc2)c1 (centres unmarked) [Compound 84, N1-(furan-2-ylmethyl)-N1-(3-methoxybenzyl)-N4-((tetrahydrofuran-2-yl)methyl)benzene-1,4-disulfonamide] | 1 to 30 nM
CCOc1ccc(CN(Cc2ccc(OC)cc2)S(=O)(=O)c2ccc(S(=O)(=O)N3CCCCC3)cc2)cc1 [Compound 85, N-(4-ethoxybenzyl)-N-(4-methoxybenzyl)-4-(piperidin-1-ylsulfonyl)benzenesulfonamide] | 100 to 1000 nM
O=S(=O)(c1ccc(S(=O)(=O)N(Cc2ccccc2)Cc2ccc(F)cc2)cc1)N1CCCC1 [Compound 86, N-benzyl-N-(4-fluorobenzyl)-4-(pyrrolidin-1-ylsulfonyl)benzenesulfonamide] | > 1000 nM
CCN(CC)S(=O)(=O)c1ccc(S(=O)(=O)N(Cc2ccc(F)cc2)Cc2cccc(OC)c2OC)cc1 [Compound 87, N1-(2,3-dimethoxybenzyl)-N4,N4-diethyl-N1-(4-fluorobenzyl)benzene-1,4-disulfonamide] | > 1000 nM
O=S(=O)(NCC1CCCO1)c1ccc(S(=O)(=O)N(Cc2ccc(F)cc2)C2CCCCC2)cc1 (centres unmarked) [Compound 88, N1-cyclohexyl-N1-(4-fluorobenzyl)-N4-((tetrahydrofuran-2-yl)methyl)benzene-1,4-disulfonamide] | 100 to 1000 nM
CCOc1ccccc1CN(Cc1ccco1)S(=O)(=O)c1ccc(S(=O)(=O)N(CC)C2CCCCC2)cc1 [Compound 89, N1-cyclohexyl-N4-(2-ethoxybenzyl)-N1-ethyl-N4-(furan-2-ylmethyl)benzene-1,4-disulfonamide] | 1 to 30 nM
O=S(=O)(NCc1ccccc1)c1ccc(S(=O)(=O)N(Cc2ccc(Cl)cc2)Cc2ccco2)cc1 [Compound 90, N1-benzyl-N4-(4-chlorobenzyl)-N4-(furan-2-ylmethyl)benzene-1,4-disulfonamide] | 100 to 1000 nM
CN(Cc1ccccc1)S(=O)(=O)c1ccc(S(=O)(=O)N(Cc2ccc(F)cc2)C2CCCC2)cc1 [Compound 91, N1-benzyl-N4-cyclopentyl-N4-(4-fluorobenzyl)-N1-methylbenzene-1,4-disulfonamide] | 30 to 100 nM
O=S(=O)(NC1CCCC1)c1ccc(S(=O)(=O)N(Cc2ccccc2)Cc2ccccn2)cc1 [Compound 92, N1-benzyl-N4-cyclopentyl-N1-(pyridin-2-ylmethyl)benzene-1,4-disulfonamide] | 1 to 30 nM
O=S(=O)(NC1CCCC1)c1ccc(S(=O)(=O)N(Cc2ccc(F)cc2)Cc2ccc(F)cc2)cc1 [Compound 93, N1-cyclopentyl-N4,N4-bis(4-fluorobenzyl)benzene-1,4-disulfonamide] | 100 to 1000 nM
COc1ccc(CN(Cc2ccc3c(c2)OCO3)S(=O)(=O)c2ccc(S(=O)(=O)N3CCCC(C)C3)cc2)cc1OC (centres unmarked) [Compound 94, N-(benzo[d][1,3]dioxol-5-ylmethyl)-N-(3,4-dimethoxybenzyl)-4-((3-methylpiperidin-1-yl)sulfonyl)benzenesulfonamide] | > 1000 nM
COc1ccc(CN(Cc2ccc(OC)c(OC)c2)S(=O)(=O)c2ccc(S(=O)(=O)N3CCCCC3)cc2)cc1 [Compound 95, N-(3,4-dimethoxybenzyl)-N-(4-methoxybenzyl)-4-(piperidin-1-ylsulfonyl)benzenesulfonamide] | > 1000 nM
CN(Cc1ccccc1)S(=O)(=O)c1ccc(S(=O)(=O)N(Cc2ccccc2)Cc2ccccc2F)cc1 [Compound 96, N1,N4-dibenzyl-N1-(2-fluorobenzyl)-N4-methylbenzene-1,4-disulfonamide] | > 1000 nM
O=S(=O)(NC1CCCC1)c1ccc(S(=O)(=O)N(Cc2ccccc2)Cc2ccccc2Cl)cc1 [Compound 98, N1-benzyl-N1-(2-chlorobenzyl)-N4-cyclopentylbenzene-1,4-disulfonamide] | 1 to 30 nM
O=S(=O)(NCC1CCCO1)c1ccc(S(=O)(=O)N(Cc2ccc(Cl)cc2)Cc2ccco2)cc1 (centres unmarked) [Compound 99, N1-(4-chlorobenzyl)-N1-(furan-2-ylmethyl)-N4-((tetrahydrofuran-2-yl)methyl)benzene-1,4-disulfonamide] | 100 to 1000 nM
O=S(=O)(NCc1ccccc1)c1ccc(S(=O)(=O)N(Cc2ccc(Cl)cc2)C2CCCC2)cc1 [Compound 100, N1-benzyl-N4-(4-chlorobenzyl)-N4-cyclopentylbenzene-1,4-disulfonamide] | 30 to 100 nM
